“Also recorded” adds a separate entry of the source. Where two headings read alike, the source gives them in different places.
What was measured:
[1] = tested on: primary hepatocytes; design: method as in PMID 25921762; settings: cited from earlier work
[2] = biological target: HBV capsid assembly (full-length HBc protein, genotype D1) (Hepatitis B virus genotype D subtype ayw, UniProt P03146, A80I/T33N/V74G); experiment: HBV capsid assembly in SFV1/HBc-infected HBc-producing BHK-21 cells, native agarose gel anti-HBc immunoblot; type: cell-based; settings: HBc-producing BHK-21 cells; for Type of effect on HBV capsid assembly in dose-dependent experiments: 0.1–50 µM, 24 h (Figure 6); for Effect on Capsid Assembly / Effect on Capsid Assembly, Starting Concentration: 24 h, native agarose immunoblot
[3] = tested on: BHK-21 cells; experiment: Cytopathic effect (cell morphology, proliferation, trypan blue) in non-infected BHK-21 cells; type: cell-based, hamster; settings: 24 h
Experimental: To define HAP compound non-toxic concentrations for initial studies, non-infected BHK-21 cells were incubated with compounds at four different concentrations for 24 h (25 μM, 50 μM, 100 μM, and 200 μM), and the cytopathic effects were evaluated by analysis of cell morphology and proliferation changes. […] 1c, 1j, 1k and 4a, and 7b. The reference comp.
The cytopathic effect of the compounds was estimated by phase contrast microscopy and standard trypan blue staining, and the cells were counted using an automatic cell counter (Invitrogen). BHK-21 and HepG2.2.15 cells were incubated for 24 h with the studied compounds at […] (25, 50, 100, 150 and 200 μM) and the cell morphology was controlled under microscope to evaluate cytopathic effects (Table 1, the highest non-toxic concentration).

[4] = tested on: HBV; experiment: microbe, parasite or virus in culture; settings: Hepatitis B virus, HepG2.2.15, 144 h, read-out: EC50 (50% reduction of HBV DNA), HepG2.2.15 cells, six days, 0–20 µM
[5] = tested on: HBV; settings: HepG2.2.15 cells; for HBV DNA, % from control: six days, secreted virion DNA
[6] = biological target: HBc protein (Hepatitis B virus genotype D subtype ayw, UniProt P03146, A80I/T33N/V74G); experiment: Anti-HBc immunostaining and confocal microscopy of HBc-producing BHK-21 cells; type: cell-based; settings: 20 μM and 50 μM, 24 h
[7] = tested on: BHK-21 cells; experiment: MTT viability assay in BHK-21 cells; type: cell-based, hamster; settings: 6.125–200 µM, 24 h
Experimental: BHK-21 cells were incubated with different concentrations (6.125, 12.25, 25, 50, 100, and 200 µM) of the respective compounds and the cell viability was calculated as a percentage from untreated cells (100%) (Figure 7). In general, the results confirmed the morphological observation of relatively low cytotoxicity for tested compounds at concentrations below 100 µM.
Additionally, cell viability was determined by tetrazolium salt-based assay using the Vybrant MTT Cell Proliferation kit (Thermo Fisher Scientific, Waltham, MA, USA) or more sensitive CCK-8 kit (Abcam). First, the cell numbers and protocol were optimized for BHK-21 and HepG2.2.15 cells, as indicated in the MTT assay kit or CCK-8 reagent manufacturer’s protocol, and standard curves with OD values were created and evaluated.
In order to evaluate the toxicity of selected HAP compounds in the medium, 1.3 × 10^4 BHK-21 were seeded per well in 96-well plates and treated with the studied compounds for 24 h at concentrations 6.125; 12.25; 25; 50; 100; and 200 μM. Control cells without HAP compounds and MTT-free cell media were included in the experiments. The MTT test was performed according to the full protocol version (Thermo Fisher Scientific).

[8] = biological target: HBV capsids (HBc assembly products) (Hepatitis B virus genotype D subtype ayw, UniProt P03146, A80I/T33N/V74G); experiment: Electron microscopy of HBc assembly products purified from treated BHK-21 cells; type: cell-based; settings: 50 μM, 24 h, sucrose cushion pellet
[9] = tested on: HepG2.2.15 cells; experiment: MTT viability test in HepG2.2.15 cells (TC50); type: cell-based, human; settings: 48 h, 0–200 µM
Experimental: In order to compare the cytotoxicity of compounds 1d and 1e in HBV producing HepG2.2.15 cells, the toxic concentrations (TC50 values) were estimated (Figure 9B,C).
In order to calculate the median of the toxic concentration (TC50) of the compounds, 1.33 × 10^5 HepG2.2.15 cells per well were seeded into a 24-well plate. After 24 h, the cells were treated with the test compounds at different concentrations (0, 50, 100, 150, 200 μM) and incubated for 48 h at 37 °C. All experiments were carried out in three identical repeats and the coefficient of variation and standard deviation were calculated from at least two independent experiments.
The percent inhibition at each compound concentration was calculated by normalization of the signals to the signals from non-treated HepG2.2.15 cells. […] Data points and error bars represent the means and standard deviations from at least two independent experiments, respectively. Comparisons between data groups were performed using the unpaired t test, with p values < 0.05 being considered statistically significant.

Chain of HBV capsid assembly (full-length HBc protein, genotype D1) (P03146 whole entry A80I/T33N/V74G, looked up): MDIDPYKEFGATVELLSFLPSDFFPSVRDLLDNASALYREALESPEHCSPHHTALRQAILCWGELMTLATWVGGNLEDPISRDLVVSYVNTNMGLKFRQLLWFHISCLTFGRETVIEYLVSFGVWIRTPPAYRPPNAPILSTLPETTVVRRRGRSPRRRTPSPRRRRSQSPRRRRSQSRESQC
Chain of HBc protein (P03146 whole entry A80I/T33N/V74G, looked up): as above
Chain of HBV capsids (HBc assembly products) (P03146 whole entry A80I/T33N/V74G, looked up): as above

Compound | Toxic concentration [1] [µM] | Type of effect on HBV capsid assembly in dose-dependent experiments [2] | Effect on Capsid Assembly [2] | Effect on Capsid Assembly, Starting Concentration [2] [µM] | Concentration revealing cell toxicity signs ([3]; BHK-21 cells) [µM] | The Highest Non-Toxic Concentration ([3]; non-infected BHK-21 cells, no noticeable cytopathic effect) [µM] | EC50 [4] [µM] | HBV DNA, % from control ([5]; 10 µM) [%] | Intracellular localization of HBc [6] | Effect on capsid production / mobility in initial test ([2]; 1–50 μM, 24 h (Figure 5)) | Cell viability compared to untreated control [7] | SI (TC50/EC50) [5] | HBV DNA, % from control ([5]; 20 µM) [%] | Decrease in the amount of HBV virion release compared with control ([5]; Figure 8) [%] | Morphology of HBc assembly products by electron microscopy [8] | TC50 [9] [µM]
COC(=O)C1=C(C)NC(c2ncc(F)cc2F)=NC1c1ccc(F)cc1Cl (centres unmarked) [1a, Bay 41-4109, reference compound] | 5.06 | dose-dependent HBc signal decrease | Dose dependent capsid signal decrease | 1 | 100 | 100 | 0.35 | 2.5 | – | – | – | – | – | – | – | –
CCOCCOC(=O)C1=C(C)NC(c2ncc(F)cc2F)=NC1c1ccc(F)cc1Cl (centres unmarked) [1d] | – | dose-dependent HBc products accumulation | HBc accumulation, aggregates/or incorrect capsid structures | 5 | – | – | 6.24 | – | speckled dot pattern of HBc distribution in the cytoplasm; also recorded: blocked the intranuclear transport of HBc protein | misfolding of the HBV capsid | did not demonstrate the difference in cell viability | 28 | 6.5 | ≤ 93.5 | irregularly shaped structures that resembled capsids of the wrong size and incorrect symmetry, as well as the capsid aggregates | 175

From article PMC9317397, “Design and Synthesis of Hepatitis B Virus (HBV) Capsid Assembly Modulators and Evaluation of Their Activity in Mammalian Cell Model” (Pharmaceuticals, 2022)
